Data on eight compounds can be found in patent US20210038607A1, “OXADIAZOLYLTHIOPHENE DERIVATIVES USEFUL AS HISTONE DEACETYLASE INHIBITORS” (Karus Therapeutics Limited, priority 2018, published 2021).

One assay concerns the target T1, Human HDAC7 (Homo sapiens, UniProt Q8WUI4).
T1 construct: (a.a. 518-end) with N-terminal GST tag; GST (N); host or cells: baculovirus expression system
T1 sequence (Q8WUI4 518-952 limits assumed): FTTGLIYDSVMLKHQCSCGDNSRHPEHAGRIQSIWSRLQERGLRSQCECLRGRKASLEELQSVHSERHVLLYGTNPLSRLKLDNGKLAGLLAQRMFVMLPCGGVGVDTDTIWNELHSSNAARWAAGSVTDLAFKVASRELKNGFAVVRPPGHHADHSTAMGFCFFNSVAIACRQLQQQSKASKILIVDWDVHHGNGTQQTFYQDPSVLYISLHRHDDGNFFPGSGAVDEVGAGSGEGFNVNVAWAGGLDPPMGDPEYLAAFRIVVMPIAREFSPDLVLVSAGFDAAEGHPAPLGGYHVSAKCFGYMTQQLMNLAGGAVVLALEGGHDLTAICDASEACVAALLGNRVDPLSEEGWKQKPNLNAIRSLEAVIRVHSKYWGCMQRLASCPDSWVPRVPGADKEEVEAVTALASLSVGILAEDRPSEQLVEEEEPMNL
Briefly: HDAC7 biochemical assay, class IIa-specific substrate. Particulars: read-out: HDAC Isoform IC50 (nM) 7. The essentials:
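GST-tagged HDAC7 (a.a. 518-end, baculovirus-expressed) at 0.001 ng/ul with 50 μM Boc-Lys(trifluoroacetyl)-AMC substrate, 30 min at room temperature in pH 8.0 Tris buffer with BSA, 1% DMSO final. Developer then releases AMC; fluorescence read at 360/460 nm.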

For the next assay, the target named is T2, Human HDAC2 (Homo sapiens, UniProt Q92769).
T2 construct: full length with C-terminal GST-tag; GST (C); host or cells: baculovirus expression system
T2 sequence (Q92769 whole entry): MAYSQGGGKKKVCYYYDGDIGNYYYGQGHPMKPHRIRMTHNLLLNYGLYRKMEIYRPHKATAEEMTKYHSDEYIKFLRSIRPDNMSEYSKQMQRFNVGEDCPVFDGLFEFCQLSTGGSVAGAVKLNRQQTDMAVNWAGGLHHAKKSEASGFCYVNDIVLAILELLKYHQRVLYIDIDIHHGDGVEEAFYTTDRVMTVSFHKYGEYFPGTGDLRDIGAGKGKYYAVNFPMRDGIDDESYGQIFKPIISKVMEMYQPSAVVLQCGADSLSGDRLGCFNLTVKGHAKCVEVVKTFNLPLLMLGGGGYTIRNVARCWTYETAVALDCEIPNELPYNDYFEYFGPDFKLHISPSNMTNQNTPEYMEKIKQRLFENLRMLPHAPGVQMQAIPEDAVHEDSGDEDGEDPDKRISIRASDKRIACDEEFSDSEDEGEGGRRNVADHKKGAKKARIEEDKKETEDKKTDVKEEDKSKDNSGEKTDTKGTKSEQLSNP
Briefly: HDAC2 biochemical assay, AMC-labeled peptide substrate. Particulars: read-out: HDAC Isoform IC50 (nM) 2. The method, then: (§1) Activity against all zinc-dependent HDACs 1 to 11 was assessed by using an acetylated AMC-labeled peptide substrate. The substrate RHKK(Ac)AMC was used for HDAC1, HDAC2, HDAC3, HDAC6 and HDAC10; the substrate used for HDAC8 was RHK(Ac)K(Ac)AMC. Activity against the class IIa HDACs (HDAC4, 5, 7, 9) and HDAC11 was determined using a class IIa-specific substrate, BOC-Lys(trifluoroacetyl)-AMC (“Trifluoroacetyl Lysine”; see Lahm et al, 2007, PNAS, 104, 17335-17340). All assays were based on the AMC-labeled substrate and developer combination.
(§2) The protocol involved a two-step reaction: first, the substrate with the acetylated lysine side chain is incubated with a sample containing HDAC activity, to produce the deacetylated products, which are then digested in the second step by the addition of developer to produce the fluorescent signal proportional to the amount of deacetylated substrates.
Human HDAC2 (GenBank Accession No. NM_001527), full length with C-terminal GST-tag, MW=82.9 kDa, expressed inbaculovirus expression system.
(§3) Assay Buffer: 50 mM Tris-HCl, pH8.0, 137 mM NaCl, 2.7 mM KCl, 1 mM MgC2. Before use, 1 mg/mL BSA and DMSO are added.
HDAC2: 0.07 ng/ul HDAC2 and 50 μM HDAC substrate are in the reaction buffer with 1% DMSO final. Incubate for 1 hour at 30° C.
(§4) Stage 1: Deacetylation of substrate by incubation of HDAC enzymes with compounds
(§5) Stage 2: Development by addition of Developer to digest the deacetylated substrate, and generate the fluorescent colour; Detection: 360/460 Ex/Em

In another assay the target is T3, Human HDAC8 (Homo sapiens, UniProt Q9BY41).
T3 construct: full length with C-terminal His tag, MW=42.6 kDa; His (C); host or cells: baculovirus expression system
T3 sequence (Q9BY41 1-377): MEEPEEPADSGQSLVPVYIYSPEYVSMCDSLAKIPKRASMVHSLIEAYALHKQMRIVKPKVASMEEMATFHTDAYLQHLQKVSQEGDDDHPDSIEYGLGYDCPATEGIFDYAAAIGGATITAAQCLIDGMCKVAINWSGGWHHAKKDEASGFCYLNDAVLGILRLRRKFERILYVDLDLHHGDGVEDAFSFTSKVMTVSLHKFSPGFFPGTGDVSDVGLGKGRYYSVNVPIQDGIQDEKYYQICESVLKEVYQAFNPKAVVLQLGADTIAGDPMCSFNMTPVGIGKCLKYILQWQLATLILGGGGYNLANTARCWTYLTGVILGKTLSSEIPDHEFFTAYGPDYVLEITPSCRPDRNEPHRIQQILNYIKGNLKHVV
Briefly: HDAC8 biochemical assay, AMC-labeled peptide substrate. Particulars: read-out: HDAC Isoform IC50 (nM) 8. The method, then:
as §1, §2
Human HDAC8 (GenBankAccession No. NM_018486), full length with C-terminal His tag, MW=42.6 kDa, expressed in a baculovirus expression system.
as §3
HDAC8: 1 ng/ul HDAC8 and 100 µM HDAC8 substrate are in the reaction buffer with 1% DMSO final. Incubate for 2 hours at 30° C.
as §4, §5

Another assay addresses T4, Human HDAC5 (Homo sapiens, UniProt Q9UQL6).
T4 construct: full length with C-terminal His tag, MW=51.1 kDa; His (C); host or cells: baculovirus expression system
Briefly: HDAC5 biochemical assay, class IIa-specific substrate. Particulars: read-out: HDAC Isoform IC50 (nM) 5. The essentials:
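Full-length C-terminal His-tagged HDAC5 from baculovirus (0.05 ng/ul) incubated 30 min at room temperature with 50 μM Boc-Lys(trifluoroacetyl)-AMC and compound, Tris pH 8.0 buffer with BSA, 1% DMSO. Developer then releases AMC; fluorescence 360/460 nm.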

The next assay has as its target T5, Human HDAC1 (Homo sapiens, UniProt Q13547).
T5 construct: full length with C-terminal His-tag and C-terminal FLAG-tag; His (C); FLAG (C); host or cells: baculovirus expression system
Briefly: HDAC1 biochemical assay, AMC-labeled peptide substrate. Particulars: read-out: HDAC Isoform IC50 (nM) 1. An outline of the steps: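 Baculovirus-expressed full-length human HDAC1 with His and FLAG tags, 0.3 ng/ul, incubated 1 h at 30° C with compound and 50 μM RHKK(Ac)AMC in Tris pH 8.0 buffer with BSA and 1% DMSO. Developer then releases AMC from deacetylated substrate; fluorescence read at 360/460 nm.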

T5 sequence (Q13547 whole entry): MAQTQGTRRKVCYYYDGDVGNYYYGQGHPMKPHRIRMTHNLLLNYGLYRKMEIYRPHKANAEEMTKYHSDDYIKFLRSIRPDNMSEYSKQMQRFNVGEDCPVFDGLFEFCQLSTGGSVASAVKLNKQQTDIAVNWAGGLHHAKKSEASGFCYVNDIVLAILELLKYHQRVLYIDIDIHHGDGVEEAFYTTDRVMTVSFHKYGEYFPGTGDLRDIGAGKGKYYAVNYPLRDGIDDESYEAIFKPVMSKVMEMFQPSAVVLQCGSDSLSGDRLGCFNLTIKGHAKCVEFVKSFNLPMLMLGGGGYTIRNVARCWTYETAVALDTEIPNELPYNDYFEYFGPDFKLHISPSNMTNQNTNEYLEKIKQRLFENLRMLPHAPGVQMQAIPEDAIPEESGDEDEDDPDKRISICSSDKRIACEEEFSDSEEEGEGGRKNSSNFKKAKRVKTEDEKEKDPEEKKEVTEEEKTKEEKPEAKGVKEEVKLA
T4 sequence (Q9UQL6 656-1122 limits assumed): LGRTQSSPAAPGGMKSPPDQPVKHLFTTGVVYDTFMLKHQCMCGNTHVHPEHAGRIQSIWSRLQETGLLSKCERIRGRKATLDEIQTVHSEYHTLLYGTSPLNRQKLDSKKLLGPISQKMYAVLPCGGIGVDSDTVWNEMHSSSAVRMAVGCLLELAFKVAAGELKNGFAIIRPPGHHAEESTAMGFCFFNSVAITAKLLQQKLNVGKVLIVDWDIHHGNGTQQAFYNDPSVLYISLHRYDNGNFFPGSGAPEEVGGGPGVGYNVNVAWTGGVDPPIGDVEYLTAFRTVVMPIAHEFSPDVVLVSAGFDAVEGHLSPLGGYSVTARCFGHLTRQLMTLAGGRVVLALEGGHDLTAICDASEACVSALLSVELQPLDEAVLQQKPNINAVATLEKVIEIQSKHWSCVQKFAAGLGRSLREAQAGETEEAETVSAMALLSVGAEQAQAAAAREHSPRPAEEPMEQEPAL

Turning to `O=C(c1cnnc(N(Cc2ccc(-c3noc(C(F)(F)F)n3)s2)c2cnccn2)c1)N1CCS(=O)(=O)CC1` [Example ED, 4-{6-[(Pyrazin-2-yl)({5-[5-(trifluoromethyl)-1,2,4-oxadiazol-3-yl]thiophen-2-yl}methyl)amino]pyridazine-4-carbonyl}-1λ^6-thiomorpholine-1,1-dione], the IC50 is at most 10000 nM on Human HDAC7; above 10000 nM on Human HDAC2; at most 10000 nM at Human HDAC8; at most 1000 nM at Human HDAC5; above 10000 nM at Human HDAC1.

Regarding `N#Cc1cnnc(N(Cc2ccc(-c3noc(C(F)(F)F)n3)s2)c2cnccn2)c1` [Example EE, 6-[(Pyrazin-2-yl)({5-[5-(trifluoromethyl)-1,2,4-oxadiazol-3-yl]thiophen-2-yl}methyl)amino]pyridazine-4-carbonitrile], the IC50 on Human HDAC7 is at most 10000 nM; on Human HDAC2, above 10000 nM; on Human HDAC8, at most 10000 nM; at Human HDAC5, at most 1000 nM; at Human HDAC1, above 10000 nM.

With `FC(F)(F)c1cnnc(N(Cc2ccc(-c3noc(C(F)(F)F)n3)s2)c2cnccn2)c1` [Example EF, N-(Pyrazin-2-yl)-5-(trifluoromethyl)-N-({5-[5-(trifluoromethyl)-1,2,4-oxadiazol-3-yl]thiophen-2-yl}methyl)pyridazin-3-amine], the IC50 is at most 10000 nM on Human HDAC7; above 10000 nM at Human HDAC2; at most 10000 nM on Human HDAC8; at most 10000 nM at Human HDAC5; above 10000 nM on Human HDAC1.

In the case of `O=C(O)c1cnnc(N(Cc2ccc(-c3noc(C(F)(F)F)n3)s2)c2cc(C(F)(F)F)cnn2)c1` [Example ES, 6-[({5-[5-(Trifluoromethyl)-1,2,4-oxadiazol-3-yl]thiophen-2-yl}methyl)[5-(trifluoromethyl)pyridazin-3-yl]amino]pyridazine-4-carboxylicacid], the IC50 is at most 10000 nM on Human HDAC7; above 10000 nM at Human HDAC2; at most 10000 nM at Human HDAC8; at most 10000 nM on Human HDAC5; above 10000 nM at Human HDAC1.

For `O=C(O)c1ccc(N(Cc2sc(-c3noc(C(F)(F)F)n3)cc2F)c2cnccn2)nn1` [Example EZ, 6-[({3-Fluoro-5-[5-(trifluoromethyl)-1,2,4-oxadiazol-3-yl]thiophen-2-yl}methyl)(pyrazin-2-yl)amino]pyridazine-3-carboxylic acid], the IC50 at Human HDAC7 was at most 10000 nM; at Human HDAC2, above 10000 nM; at Human HDAC8, at most 10000 nM; at Human HDAC5, at most 10000 nM; on Human HDAC1 it was above 10000 nM.

Consider `O=C(O)c1cnnc(N(Cc2sc(-c3noc(C(F)(F)F)n3)cc2F)c2cnccn2)c1` [Example FA, 6-[({3-fluoro-5-[5-(trifluoromethyl)-1,2,4-oxadiazol-3-yl]thiophen-2-yl}methyl)(pyrazin-2-yl)amino]pyridazine-4-carboxylic acid], for which the IC50 at Human HDAC7 was at most 1000 nM; at Human HDAC2 it was above 10000 nM; at Human HDAC8 it was at most 10000 nM; at Human HDAC5 it was at most 1000 nM; at Human HDAC1 it was above 10000 nM.

With `CNC(=O)c1ccc(N(Cc2ccc(-c3noc(C(F)(F)F)n3)s2)c2cnccn2)nn1` [Example FC, N-Methyl-6-[(pyrazin-2-yl)({5-[5-(trifluoromethyl)-1,2,4-oxadiazol-3-yl]thiophen-2-yl}methyl)amino]pyridazine-3-carboxamide], the IC50 at Human HDAC7 was at most 500 nM; on Human HDAC2, above 10000 nM; at Human HDAC8, at most 10000 nM; at Human HDAC5 it was at most 500 nM; on Human HDAC1 it was at most 10000 nM.

In the case of `O=C(c1ccc(N(Cc2ccc(-c3noc(C(F)(F)F)n3)s2)c2cnccn2)nn1)N1CC[S+]([O-])CC1` [Example FD, 4-{6-[(Pyrazin-2-yl)({5-[5-(trifluoromethyl)-1,2,4-oxadiazol-3-yl]thiophen-2-yl}methyl)amino]pyridazine-3-carbonyl}-1lambda4-thiomorpholin-1-one], the 50% inhibitory concentration (IC50) on Human HDAC7 was at most 500 nM; on Human HDAC2 it was above 10000 nM; on Human HDAC8, at most 10000 nM; at Human HDAC5, at most 500 nM; at Human HDAC1, at most 10000 nM.

The IC50 is the point on the concentration scale where inhibition reaches its midpoint.
